Source: patent publication US9605064B2, “Methods and compositions for treatment of skin disorders” (AbbVie Biotechnology Ltd, priority 2006, dated 2017)

What was measured:
[1] = system: patients with moderate to severe chronic plaque psoriasis; assay: Adverse events, CHAMPION 16-week Phase III trial; settings: 16-week study
Description: (§2) The study was a multi-center, 16-week, randomized controlled Phase III trial. The main inclusion criteria included: • Clinical diagnosis of psoriasis for ≧1 year • Affected body surface area (BSA)≧10% • Psoriasis Area and Severity Index (PASI)≧10 The main exclusion criteria was previous use of MTX or systemic anti-TNF therapy.

[2] = system: patients with moderate to severe chronic plaque psoriasis; assay: PASI response, CHAMPION 16-week Phase III trial vs methotrexate and placebo; assay type: in vivo, human; settings: ITT; for PASI 75 Response Rates, % Patients / PASI 90 Response Rates, % Patients: missing PASI = non-responder
Description: (§1) Analytical methods included the following: • Intention-to-treat analyses were performed for all randomized patients • Missing data were analyzed using non-responder imputation (NRI) • PASI 75 at Week 16 (primary endpoint) was analyzed using adjusted Cochran-Mantel-Haenszel test.

[3] = system: patients with moderate to severe chronic plaque psoriasis; assay: PASI response, open-label extension of CHAMPION (methotrexate to adalimumab transition); assay type: in vivo, human; settings: prior to starting adalimumab, after 16 weeks of methotrexate in CHAMPION; 95 patients
[4] = system: patients with moderate to severe chronic plaque psoriasis; settings: human, in vivo, 16 weeks
Description: as §2

[5] = system: patients with moderate to severe chronic plaque psoriasis; assay: PGA, CHAMPION 16-week Phase III trial; assay type: in vivo, human; settings: ITT, missing PGA = not achieving
Description: as §1

[6] = MTX N = 110, Adalimumab N = 107

CN(Cc1cnc2nc(N)nc(N)c2n1)c1ccc(C(=O)N[C@@H](CCC(=O)O)C(=O)O)cc1 [methotrexate, reference compound] was tested, and the “Any AE” value [1, 6] was 89 (81) n (%), the “Any AE leading to discontinuation” value [1, 6] was 6 (6) n (%) and the “Any SAE” value [1, 6] was 1 (1) n (%). The “Any infectious AE” value [1, 6] was 46 (42) n (%), the “Any infectious SAE” value [1, 6] was 0 (0) n (%) and the Arthralgia ([1]; common AE in ≧5% of patients) was 5 (5) n (%). For the same molecule, the “Gamma-Glutamyltransferase Increased” value ([1]; common AE in ≧5% of patients) was 0 (0) n (%), the Headache ([1]; common AE in ≧5% of patients) was 12 (11) n (%) and the Nasopharyngitis ([1]; common AE in ≧5% of patients) was 26 (24) n (%). The Nausea ([1]; common AE in ≧5% of patients) was 8 (7) n (%), the Pruritus ([1]; common AE in ≧5% of patients) was 2 (2) n (%) and the Rhinitis ([1]; common AE in ≧5% of patients) was 4 (4) n (%). For the same molecule, the Rhinorrhea ([1]; common AE in ≧5% of patients) was 0 (0) n (%), the “PASI 75 Response Rates, % Patients” value ([2]; Week 4) was 3% and the “PASI 90 Response Rates, % Patients” value ([2]; Week 4) was 1%. For the same molecule, the “PASI 75 Response Rates, % Patients” value ([2]; Week 8) was 9%, the “PASI 90 Response Rates, % Patients” value ([2]; Week 8) was 3% and the “PASI 75 Response Rates, % Patients” value ([2]; Week 12) was 25%. The “PASI 90 Response Rates, % Patients” value ([2]; Week 12) was 9%, the “PASI 75” value ([2]; Week 16, NRI) was 36% and the “PASI 75 Response Rates, % Patients” value ([2]; Week 16) was 36%. For the same molecule, the “PASI 90 Response Rates, % Patients” value ([2]; Week 16) was 14%, the “PASI 75 Response Rates, % Patients” value ([2]; Week 16, listed as MTX) was 35.5% and the “PASI 90 Response Rates, % Patients” value ([2]; Week 16, listed as MTX) was 13.6%. The “PASI 50 response rate” value ([2]; Week 16 of CHAMPION, NRI) was 61.8%, the “PASI 100 response rate” value ([2]; Week 16 of CHAMPION, NRI) was 7.3% and the “PASI 75 response rate” value [3] was 28%. The “PASI 90 response rate” value [3] was 14%, the “PASI 100 response rate” value [3] was 5% and the “Viral Infection” value [4] was 6 (6) n (%). The “PGA “Clear” or “Minimal” Responses, % Patients” value ([5]; Week 4) was 1%, the “PGA “Clear” or “Minimal” Responses, % Patients” value ([5]; Week 8) was 3% and the “PGA “Clear” or “Minimal” Responses, % Patients” value ([5]; Week 12) was 9%. The “PGA “Clear” or “Minimal” Responses, % Patients” value ([5]; Week 16) was 14%.
